Reference: ChEMBL document CHEMBL5465560, “Selectivity Literature for EUbOPEN Chemogenomic Library” (2024)

Legend:
[1] = molecular target: Serine/threonine-protein kinase VRK2 (Homo sapiens) (UniProt Q86Y07); assay: Selectivity interaction (KinomeScan (DiscoverX)) EUB0001066a VRK2; settings: at 1 µM
[2] = test system: Mast/stem cell growth factor receptor Kit (Homo sapiens), P10721 [UNDEFINED MUTATION]; assay: Selectivity interaction (KinomeScan (DiscoverX)) EUB0001066a KIT; settings: at 1 µM
[3] = molecular target: T1, 5-hydroxytryptamine receptor 2C (Homo sapiens) (UniProt P28335); assay: Selectivity interaction (GPCR panel (PDSP screen)) EUB0001066a HTR2C; settings: at 10 µM
T1 sequence (whole entry): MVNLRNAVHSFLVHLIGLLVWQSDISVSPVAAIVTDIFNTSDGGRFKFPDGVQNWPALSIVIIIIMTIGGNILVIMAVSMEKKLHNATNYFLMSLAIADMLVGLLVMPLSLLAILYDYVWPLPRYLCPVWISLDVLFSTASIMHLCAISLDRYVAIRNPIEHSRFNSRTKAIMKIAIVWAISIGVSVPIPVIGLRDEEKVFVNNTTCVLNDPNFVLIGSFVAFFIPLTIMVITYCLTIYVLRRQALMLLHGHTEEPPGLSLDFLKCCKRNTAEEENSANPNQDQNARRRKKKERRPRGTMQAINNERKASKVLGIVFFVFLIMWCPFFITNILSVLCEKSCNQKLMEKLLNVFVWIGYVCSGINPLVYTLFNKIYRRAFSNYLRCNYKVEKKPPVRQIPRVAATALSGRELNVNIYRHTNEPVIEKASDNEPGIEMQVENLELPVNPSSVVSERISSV

[4] = molecular target: T2, Alpha-1B adrenergic receptor (Homo sapiens) (UniProt P35368); assay: Selectivity interaction (GPCR panel (PDSP screen)) EUB0001066a ADRA1B; settings: at 10 µM
T2 sequence (whole entry): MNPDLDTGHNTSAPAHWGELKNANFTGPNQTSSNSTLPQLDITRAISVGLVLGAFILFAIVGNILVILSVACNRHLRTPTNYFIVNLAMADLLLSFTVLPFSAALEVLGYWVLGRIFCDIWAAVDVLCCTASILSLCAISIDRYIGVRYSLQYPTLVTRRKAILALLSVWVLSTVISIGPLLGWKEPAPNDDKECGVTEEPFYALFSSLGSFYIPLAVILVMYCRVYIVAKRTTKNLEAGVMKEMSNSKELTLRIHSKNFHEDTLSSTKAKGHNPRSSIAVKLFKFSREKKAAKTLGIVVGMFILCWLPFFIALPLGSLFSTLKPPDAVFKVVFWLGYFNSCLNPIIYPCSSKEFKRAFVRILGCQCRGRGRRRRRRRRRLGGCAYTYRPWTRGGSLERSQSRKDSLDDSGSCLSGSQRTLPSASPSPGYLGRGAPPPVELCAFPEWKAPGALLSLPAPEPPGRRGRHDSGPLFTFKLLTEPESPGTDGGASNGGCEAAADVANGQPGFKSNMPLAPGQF

[5] = molecular target: T3, Serine/threonine-protein kinase NLK (Homo sapiens) (UniProt Q9UBE8); assay: Selectivity interaction (KinomeScan (DiscoverX)) EUB0001066a NLK; settings: at 1 µM
T3 sequence (whole entry): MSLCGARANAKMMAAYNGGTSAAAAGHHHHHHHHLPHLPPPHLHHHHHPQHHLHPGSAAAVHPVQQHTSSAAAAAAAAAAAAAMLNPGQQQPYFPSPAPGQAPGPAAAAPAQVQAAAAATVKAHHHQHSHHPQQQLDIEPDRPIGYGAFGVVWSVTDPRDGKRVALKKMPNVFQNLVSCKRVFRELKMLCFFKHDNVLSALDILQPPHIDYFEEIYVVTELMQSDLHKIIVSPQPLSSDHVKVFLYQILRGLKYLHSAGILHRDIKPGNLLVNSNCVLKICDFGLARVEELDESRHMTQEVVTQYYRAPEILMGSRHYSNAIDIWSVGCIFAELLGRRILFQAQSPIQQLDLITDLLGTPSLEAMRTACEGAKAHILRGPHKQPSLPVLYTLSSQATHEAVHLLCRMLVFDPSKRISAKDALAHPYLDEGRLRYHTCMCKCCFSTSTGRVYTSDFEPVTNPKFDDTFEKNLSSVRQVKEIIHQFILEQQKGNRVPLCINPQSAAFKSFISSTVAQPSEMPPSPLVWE

[6] = molecular target: 5-hydroxytryptamine receptor 1E (Homo sapiens) (UniProt P28566); assay: Selectivity interaction (GPCR panel (PDSP screen)) EUB0001066a HTR1E; settings: at 10 µM
5-hydroxytryptamine receptor 1E (Homo sapiens), sequence (P28566 whole entry): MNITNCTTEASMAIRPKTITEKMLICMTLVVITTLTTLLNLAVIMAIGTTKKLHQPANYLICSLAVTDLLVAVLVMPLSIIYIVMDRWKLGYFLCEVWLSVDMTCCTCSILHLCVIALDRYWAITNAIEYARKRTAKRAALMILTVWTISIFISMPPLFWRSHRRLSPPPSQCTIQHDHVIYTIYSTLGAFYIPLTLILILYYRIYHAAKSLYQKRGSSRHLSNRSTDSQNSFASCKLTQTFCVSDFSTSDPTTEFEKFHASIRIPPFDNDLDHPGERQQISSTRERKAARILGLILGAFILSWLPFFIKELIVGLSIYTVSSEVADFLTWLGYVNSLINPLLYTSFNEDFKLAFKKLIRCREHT

[7] = molecular target: Serine/threonine-protein kinase pim-2 (Homo sapiens, UniProt Q9P1W9); assay: Selectivity interaction (KinomeScan (DiscoverX)) EUB0001066a PIM2; settings: at 1 µM
Serine/threonine-protein kinase pim-2, sequence (Q9P1W9 whole entry, looked up): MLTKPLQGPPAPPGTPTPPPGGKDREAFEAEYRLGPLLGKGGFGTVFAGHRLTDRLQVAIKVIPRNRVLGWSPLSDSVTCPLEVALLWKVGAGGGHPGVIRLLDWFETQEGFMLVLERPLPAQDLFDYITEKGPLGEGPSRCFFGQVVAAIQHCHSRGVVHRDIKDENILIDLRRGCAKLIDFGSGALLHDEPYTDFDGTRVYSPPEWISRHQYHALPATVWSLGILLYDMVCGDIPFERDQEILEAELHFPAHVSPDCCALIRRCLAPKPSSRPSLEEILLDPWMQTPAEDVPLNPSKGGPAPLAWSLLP

[8] = molecular target: Sodium-dependent dopamine transporter (Homo sapiens, UniProt Q01959); assay: Selectivity interaction (Eurofins Cerep-Panlabs Safety Screen 44 (GPCRS, Transporters, Ion Channels, Nuclear Receptors, other enzymes)) EUB0000878a SLC6A3; settings: at 10 µM
Sodium-dependent dopamine transporter, sequence (Q01959 whole entry): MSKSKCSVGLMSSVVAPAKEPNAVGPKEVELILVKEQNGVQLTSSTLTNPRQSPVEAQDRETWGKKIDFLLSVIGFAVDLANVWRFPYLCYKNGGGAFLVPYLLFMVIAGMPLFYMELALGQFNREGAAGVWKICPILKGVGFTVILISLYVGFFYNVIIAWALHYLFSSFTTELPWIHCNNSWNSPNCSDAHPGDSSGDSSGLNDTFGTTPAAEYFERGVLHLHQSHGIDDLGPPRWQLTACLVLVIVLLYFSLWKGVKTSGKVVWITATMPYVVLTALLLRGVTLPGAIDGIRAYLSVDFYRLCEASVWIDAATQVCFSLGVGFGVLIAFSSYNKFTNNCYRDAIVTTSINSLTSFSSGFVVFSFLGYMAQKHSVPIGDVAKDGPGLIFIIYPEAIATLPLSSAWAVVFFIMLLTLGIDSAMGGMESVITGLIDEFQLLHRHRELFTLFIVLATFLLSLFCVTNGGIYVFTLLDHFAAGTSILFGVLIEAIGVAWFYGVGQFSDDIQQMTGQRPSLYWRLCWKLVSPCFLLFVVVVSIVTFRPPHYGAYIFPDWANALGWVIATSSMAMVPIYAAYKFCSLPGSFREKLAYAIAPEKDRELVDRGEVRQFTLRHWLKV

[9] = molecular target: Phosphatidylinositol 4-phosphate 5-kinase type-1 gamma (Homo sapiens) (UniProt O60331); assay: Selectivity interaction (KinomeScan (DiscoverX)) EUB0000878a PIP5K1C; settings: at 1 µM
Phosphatidylinositol 4-phosphate 5-kinase type-1 gamma (Homo sapiens), sequence (O60331 whole entry): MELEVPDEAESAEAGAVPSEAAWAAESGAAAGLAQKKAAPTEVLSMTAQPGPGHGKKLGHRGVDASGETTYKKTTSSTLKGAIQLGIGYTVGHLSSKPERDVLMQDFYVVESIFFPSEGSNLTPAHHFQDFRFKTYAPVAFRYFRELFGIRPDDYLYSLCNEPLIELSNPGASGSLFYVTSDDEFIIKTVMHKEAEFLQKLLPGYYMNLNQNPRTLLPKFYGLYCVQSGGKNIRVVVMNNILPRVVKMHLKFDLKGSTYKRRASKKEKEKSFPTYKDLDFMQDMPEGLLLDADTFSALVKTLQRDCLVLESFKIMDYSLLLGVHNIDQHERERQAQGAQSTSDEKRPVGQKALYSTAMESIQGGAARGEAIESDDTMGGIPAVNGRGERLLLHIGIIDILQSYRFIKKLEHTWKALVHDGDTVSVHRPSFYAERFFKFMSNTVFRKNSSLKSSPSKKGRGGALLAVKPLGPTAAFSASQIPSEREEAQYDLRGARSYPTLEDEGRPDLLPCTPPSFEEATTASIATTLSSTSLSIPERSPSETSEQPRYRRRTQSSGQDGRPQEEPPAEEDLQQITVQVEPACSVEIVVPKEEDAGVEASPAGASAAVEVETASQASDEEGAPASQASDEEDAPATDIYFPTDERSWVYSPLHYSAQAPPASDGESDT

[10] = molecular target: Muscarinic acetylcholine receptor M3 (Homo sapiens, UniProt P20309); assay: Selectivity interaction (Eurofins Cerep-Panlabs Safety Screen 44 (GPCRS, Transporters, Ion Channels, Nuclear Receptors, other enzymes)) EUB0000878a CHRM3; settings: at 10 µM
[11] = molecular target: Sodium-dependent noradrenaline transporter (Homo sapiens, UniProt P23975); assay: Selectivity interaction (Eurofins Cerep-Panlabs Safety Screen 44 (GPCRS, Transporters, Ion Channels, Nuclear Receptors, other enzymes)) EUB0000878a SLC6A2; settings: at 10 µM
Sodium-dependent noradrenaline transporter, sequence (P23975 whole entry): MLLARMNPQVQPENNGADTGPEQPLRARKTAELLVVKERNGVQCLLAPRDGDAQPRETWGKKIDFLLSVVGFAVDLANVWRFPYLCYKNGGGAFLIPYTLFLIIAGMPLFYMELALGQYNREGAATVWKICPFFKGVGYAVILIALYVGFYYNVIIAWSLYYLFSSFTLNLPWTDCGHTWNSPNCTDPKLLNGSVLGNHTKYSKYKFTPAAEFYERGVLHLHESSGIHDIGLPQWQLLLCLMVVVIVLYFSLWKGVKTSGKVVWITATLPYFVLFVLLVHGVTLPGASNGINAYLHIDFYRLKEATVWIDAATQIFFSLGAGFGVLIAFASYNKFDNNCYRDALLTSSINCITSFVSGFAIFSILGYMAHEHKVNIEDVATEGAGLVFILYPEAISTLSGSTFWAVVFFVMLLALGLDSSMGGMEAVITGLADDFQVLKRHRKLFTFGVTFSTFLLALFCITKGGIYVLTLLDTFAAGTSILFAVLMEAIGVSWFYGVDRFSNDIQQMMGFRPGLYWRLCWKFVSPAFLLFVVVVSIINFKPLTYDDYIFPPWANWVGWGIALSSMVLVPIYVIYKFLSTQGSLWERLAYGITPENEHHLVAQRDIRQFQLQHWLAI

[12] = molecular target: T4, Muscarinic acetylcholine receptor M1 (Homo sapiens) (UniProt P11229); assay: Selectivity interaction (Eurofins Cerep-Panlabs Safety Screen 44 (GPCRS, Transporters, Ion Channels, Nuclear Receptors, other enzymes)) EUB0000878a CHRM1; settings: at 10 µM
T4 sequence (whole entry): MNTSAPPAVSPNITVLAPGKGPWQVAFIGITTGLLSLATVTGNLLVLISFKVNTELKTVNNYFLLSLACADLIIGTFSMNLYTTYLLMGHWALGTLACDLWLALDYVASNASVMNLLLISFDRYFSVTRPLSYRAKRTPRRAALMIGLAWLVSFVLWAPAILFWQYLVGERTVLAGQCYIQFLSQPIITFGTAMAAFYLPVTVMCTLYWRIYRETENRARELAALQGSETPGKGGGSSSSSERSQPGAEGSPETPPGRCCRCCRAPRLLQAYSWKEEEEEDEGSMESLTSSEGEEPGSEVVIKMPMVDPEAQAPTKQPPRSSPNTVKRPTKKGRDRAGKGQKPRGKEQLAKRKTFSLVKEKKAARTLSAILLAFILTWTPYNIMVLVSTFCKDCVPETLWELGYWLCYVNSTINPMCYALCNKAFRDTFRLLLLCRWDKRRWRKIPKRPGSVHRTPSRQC

[13] = molecular target: T5, Muscarinic acetylcholine receptor M2 (Homo sapiens) (UniProt P08172); assay: Selectivity interaction (Eurofins Cerep-Panlabs Safety Screen 44 (GPCRS, Transporters, Ion Channels, Nuclear Receptors, other enzymes)) EUB0000878a CHRM2; settings: at 10 µM
T5 sequence (whole entry): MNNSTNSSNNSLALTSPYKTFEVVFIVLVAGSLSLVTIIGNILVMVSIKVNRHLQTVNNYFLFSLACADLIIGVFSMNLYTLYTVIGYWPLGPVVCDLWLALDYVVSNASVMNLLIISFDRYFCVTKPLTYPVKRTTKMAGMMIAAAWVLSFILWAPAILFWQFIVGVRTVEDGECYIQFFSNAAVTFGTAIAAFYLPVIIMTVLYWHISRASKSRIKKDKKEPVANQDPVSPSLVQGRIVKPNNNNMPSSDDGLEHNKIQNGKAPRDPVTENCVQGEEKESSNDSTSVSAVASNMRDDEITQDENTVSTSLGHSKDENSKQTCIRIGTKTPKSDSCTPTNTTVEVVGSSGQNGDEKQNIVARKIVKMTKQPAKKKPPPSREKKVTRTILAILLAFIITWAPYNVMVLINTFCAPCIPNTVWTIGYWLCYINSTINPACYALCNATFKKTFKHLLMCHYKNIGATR

[14] = molecular target: T6, Dual specificity mitogen-activated protein kinase kinase 5 (Homo sapiens) (UniProt Q13163); assay: Selectivity interaction (KinomeScan (DiscoverX)) EUB0000878a MAP2K5; settings: at 1 µM
T6 sequence (whole entry): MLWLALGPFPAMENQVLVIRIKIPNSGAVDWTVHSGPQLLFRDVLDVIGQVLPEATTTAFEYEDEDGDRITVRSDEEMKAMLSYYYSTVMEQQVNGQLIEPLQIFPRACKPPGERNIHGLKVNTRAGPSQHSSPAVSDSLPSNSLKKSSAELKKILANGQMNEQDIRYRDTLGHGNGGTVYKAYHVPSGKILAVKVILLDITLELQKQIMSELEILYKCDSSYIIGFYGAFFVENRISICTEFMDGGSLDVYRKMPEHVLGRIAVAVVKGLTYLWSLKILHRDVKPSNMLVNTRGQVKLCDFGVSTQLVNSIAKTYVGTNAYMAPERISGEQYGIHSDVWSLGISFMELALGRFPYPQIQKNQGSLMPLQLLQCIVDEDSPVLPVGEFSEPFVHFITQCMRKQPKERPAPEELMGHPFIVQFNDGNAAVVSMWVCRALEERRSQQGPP

[15] = molecular target: Mitogen-activated protein kinase kinase kinase 11 (Homo sapiens) (UniProt Q16584); assay: Selectivity interaction (KinomeScan (DiscoverX)) EUB0000878a MAP3K11; settings: at 1 µM
Mitogen-activated protein kinase kinase kinase 11 (Homo sapiens), sequence (Q16584 whole entry, looked up): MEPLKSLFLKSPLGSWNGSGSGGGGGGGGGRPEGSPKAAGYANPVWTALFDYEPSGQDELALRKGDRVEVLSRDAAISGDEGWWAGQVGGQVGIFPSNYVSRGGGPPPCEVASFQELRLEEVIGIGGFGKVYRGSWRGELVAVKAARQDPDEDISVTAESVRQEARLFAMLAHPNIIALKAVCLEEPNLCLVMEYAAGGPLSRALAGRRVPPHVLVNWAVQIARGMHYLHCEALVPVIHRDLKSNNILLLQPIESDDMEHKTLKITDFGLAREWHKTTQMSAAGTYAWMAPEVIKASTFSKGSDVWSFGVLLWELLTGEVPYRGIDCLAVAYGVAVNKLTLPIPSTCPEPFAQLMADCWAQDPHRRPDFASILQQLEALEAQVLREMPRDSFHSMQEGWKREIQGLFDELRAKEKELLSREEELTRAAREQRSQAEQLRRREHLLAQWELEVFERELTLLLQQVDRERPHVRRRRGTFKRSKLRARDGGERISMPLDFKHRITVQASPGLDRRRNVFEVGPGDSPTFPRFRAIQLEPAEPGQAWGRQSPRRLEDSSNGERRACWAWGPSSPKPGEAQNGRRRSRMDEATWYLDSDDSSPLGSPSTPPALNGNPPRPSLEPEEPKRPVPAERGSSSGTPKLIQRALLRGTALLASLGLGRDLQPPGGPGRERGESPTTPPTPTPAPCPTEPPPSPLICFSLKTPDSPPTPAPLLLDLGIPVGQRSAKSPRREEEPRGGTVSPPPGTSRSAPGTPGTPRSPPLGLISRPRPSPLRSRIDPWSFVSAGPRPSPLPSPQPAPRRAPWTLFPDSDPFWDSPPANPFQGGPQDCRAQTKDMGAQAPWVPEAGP

[16] = molecular target: T7, Receptor-interacting serine/threonine-protein kinase 4 (Homo sapiens) (UniProt P57078); assay: Selectivity interaction (KinomeScan (DiscoverX)) EUB0000878a RIPK4; settings: at 1 µM
T7 sequence (whole entry): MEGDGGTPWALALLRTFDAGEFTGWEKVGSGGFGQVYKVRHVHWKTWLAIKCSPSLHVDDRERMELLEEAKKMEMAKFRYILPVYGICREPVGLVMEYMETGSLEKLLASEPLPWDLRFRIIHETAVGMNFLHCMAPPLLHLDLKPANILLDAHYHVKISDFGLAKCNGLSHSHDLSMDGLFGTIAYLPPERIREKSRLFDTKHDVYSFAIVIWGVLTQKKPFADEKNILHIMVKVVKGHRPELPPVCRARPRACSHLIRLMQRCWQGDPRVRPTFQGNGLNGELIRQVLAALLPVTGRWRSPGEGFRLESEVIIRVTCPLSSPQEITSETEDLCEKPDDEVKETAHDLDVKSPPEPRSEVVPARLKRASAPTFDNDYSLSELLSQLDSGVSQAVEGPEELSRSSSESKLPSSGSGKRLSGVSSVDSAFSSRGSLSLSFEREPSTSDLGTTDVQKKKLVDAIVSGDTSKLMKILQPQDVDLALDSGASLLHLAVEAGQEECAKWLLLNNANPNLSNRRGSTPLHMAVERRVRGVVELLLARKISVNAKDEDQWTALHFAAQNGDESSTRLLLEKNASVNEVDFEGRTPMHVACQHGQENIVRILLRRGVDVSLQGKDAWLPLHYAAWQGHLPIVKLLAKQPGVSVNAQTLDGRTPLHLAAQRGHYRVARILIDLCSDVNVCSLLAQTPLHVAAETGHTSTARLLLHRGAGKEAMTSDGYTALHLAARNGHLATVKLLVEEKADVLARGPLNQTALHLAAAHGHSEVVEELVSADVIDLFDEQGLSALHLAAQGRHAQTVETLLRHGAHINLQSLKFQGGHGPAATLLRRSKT

Mast/stem cell growth factor receptor Kit (Homo sapiens), P10721 [UNDEFINED MUTATION], sequence (P10721 whole entry, looked up, change not shown): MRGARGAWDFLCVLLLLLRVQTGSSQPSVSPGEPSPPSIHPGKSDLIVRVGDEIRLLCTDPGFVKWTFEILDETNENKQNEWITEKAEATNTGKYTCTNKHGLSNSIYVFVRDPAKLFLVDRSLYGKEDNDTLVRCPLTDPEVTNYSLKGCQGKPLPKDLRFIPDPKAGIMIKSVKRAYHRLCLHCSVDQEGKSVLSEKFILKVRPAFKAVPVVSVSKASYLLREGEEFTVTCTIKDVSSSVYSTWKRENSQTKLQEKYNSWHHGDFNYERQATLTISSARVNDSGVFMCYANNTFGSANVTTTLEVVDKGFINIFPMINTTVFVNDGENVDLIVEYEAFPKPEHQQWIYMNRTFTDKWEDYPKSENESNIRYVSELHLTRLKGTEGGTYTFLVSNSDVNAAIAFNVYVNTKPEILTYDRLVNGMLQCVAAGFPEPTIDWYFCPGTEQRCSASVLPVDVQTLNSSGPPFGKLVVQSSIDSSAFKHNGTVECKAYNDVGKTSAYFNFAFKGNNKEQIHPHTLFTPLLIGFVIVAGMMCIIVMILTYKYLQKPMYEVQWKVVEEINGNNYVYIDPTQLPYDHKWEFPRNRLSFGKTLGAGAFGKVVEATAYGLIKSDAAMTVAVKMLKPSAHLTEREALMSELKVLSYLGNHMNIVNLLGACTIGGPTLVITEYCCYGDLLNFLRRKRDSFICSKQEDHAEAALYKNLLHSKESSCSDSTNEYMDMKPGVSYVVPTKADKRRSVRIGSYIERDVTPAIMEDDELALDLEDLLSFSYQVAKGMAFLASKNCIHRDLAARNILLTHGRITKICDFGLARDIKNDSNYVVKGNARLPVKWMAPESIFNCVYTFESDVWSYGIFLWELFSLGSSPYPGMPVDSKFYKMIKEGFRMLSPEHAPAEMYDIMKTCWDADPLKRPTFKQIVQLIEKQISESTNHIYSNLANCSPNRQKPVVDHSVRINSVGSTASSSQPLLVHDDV
Serine/threonine-protein kinase VRK2 (Homo sapiens), sequence (Q86Y07 whole entry): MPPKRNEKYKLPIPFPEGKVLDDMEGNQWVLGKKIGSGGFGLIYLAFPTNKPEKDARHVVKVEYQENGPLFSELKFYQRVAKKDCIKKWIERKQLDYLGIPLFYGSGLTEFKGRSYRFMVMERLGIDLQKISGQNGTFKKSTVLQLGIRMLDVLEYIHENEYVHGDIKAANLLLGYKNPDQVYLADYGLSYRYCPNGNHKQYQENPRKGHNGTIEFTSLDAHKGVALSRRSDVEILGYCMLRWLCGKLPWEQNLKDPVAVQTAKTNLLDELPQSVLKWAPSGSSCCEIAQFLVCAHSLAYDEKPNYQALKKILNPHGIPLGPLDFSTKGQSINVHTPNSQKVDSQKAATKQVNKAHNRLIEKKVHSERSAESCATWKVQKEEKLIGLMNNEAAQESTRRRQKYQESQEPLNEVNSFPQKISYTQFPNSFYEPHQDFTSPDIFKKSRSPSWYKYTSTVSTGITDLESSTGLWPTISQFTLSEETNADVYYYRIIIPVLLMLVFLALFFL

% of control [1] [%] | % of control [2] [%] | % of inhibition [3] [%] | % of inhibition [4] [%] | % of control [5] [%] | % of inhibition [6] [%] | % of control [7] [%] | % of control [9] [%] | % of control [14] [%] | % of control [15] [%] | % of control [16] [%] | SMILES | % of inhibition or stimulation [8] [%] | % of inhibition or stimulation [10] [%] | % of inhibition or stimulation [11] [%] | % of inhibition or stimulation [12] [%] | % of inhibition or stimulation [13] [%]
29 | 41 | 31.1 | 30.2 | 41 | 31.8 | 0 | – | – | – | – | Cc1nccc(COC(=O)N2C[C@@H]3[C@@H](CNC(=O)c4ccc5[nH]nnc5c4)[C@@H]3C2)n1 | – | – | – | – | –
– | – | – | – | – | – | – | 0 | 4.5 | 99 | 0.95 | CC(C)c1cc(Nc2nc(N3CCC[C@H](N)C3)ncc2C(N)=O)cc(C(C)C)n1 | 100 | 84 | 87 | 84 | 70
